{
  "source": "patent US20080207738A1",
  "about": "“DRUG COMBINATIONS TO TREAT DRUG RESISTANT TUMORS” (priority 2007, published 2008)",
  "key": {"Solubility in water": {"assay": "Solubility in water", "assay_type": "physicochemical", "from_the_text": "In one embodiment, CCcompound104, CCcompound26 and EA may be administered orally. The two CC compounds are water-soluble, while EA is first dissolved in absolute ethanol and diluted in water or a suitable physiologically compatible liquid solvent. In one embodiment of the invention, the CC compounds and EA are in the form of a tablet, gel capsule, a liquid, or the like. In each case, the compounds are mixed with one or more carriers chosen by one having ordinary skill in the art to best suit the goal of treatment. In addition to the active compounds, the tablet or gel may contain any component that is presently used in the pharmaceutical field to ensure firmness, stability, solubility and appropriate taste. Any additional component of the tablet or gel will be chemically inert; i.e., it will not participate in a chemical reaction with the active compounds or the other additives. Each compound may be prepared for oral consumption separately, or the tablet, gel capsule or liquid may contain any of the two components or all three components. Tablets containing 25 mg or 50 mg of EA can be purchased from Merck."}, "in vitro": {"assay": "in vitro", "details": "human, decrease of viability of healthy lymphocytes", "from_the_text": "(§1) For the determination of relative number of viable cells before and after treatments, in most cases the MTT assay was used. This calorimetric assay is based on the ability of living cells, but not dead cells, to reduce 3-(4, 5-dimethyl thiazol-2-yl)-2, 5-diphenyltetrazolium bromide [Carmichael, J, De Graff, W. G., Gazdar, A. F., Minna, J. D. and Mitchell, J. B. (1987), “Evaluation oftetrazolium-based semiautomated calorimetric assay: Assessment of chemosensitivity testing,” Cancer Res., 47, 936-942]. For this assay, cells were plated in 96-well plates (10,000-30,000 cells in case of cultured cells, 100,000 cells in case of healthy lymphocytes, and 200,000 cells in case of chronic lymphocytic leukemia or non-Hodgkin lymphocytes) in the respective incubation media. After a 24-h resting period, the cells were treated with the test agents and then incubated (in CO2 incubator under humidified atmosphere) for 72 hours (final incubation volume, 150 μl). The MTT assay was performed both with the untreated and treated cell cultures at the conclusion of the incubation. Often, the MTT assay also was performed at the start of treatments to allow assessment of proliferation rates in the control and treated cell cultures. All data presented are the average of 4 incubations (in 4 separate wells) with the same cell population.\nPeripheral lymphocytes are known to be very sensitive to chemotherapy and this sensitivity often limits the dose of chemotherapy that can be employed. In this series of experiments, the combined effects of CCcompound104 alone or in combination with CCcompound26 or CCcompound3 were determined on the viability of peripheral lymphocytes to establish doses that reduce cell viability less than 50%. As in previous experiments, the treatments were performed for 72 hours."}, "[1]": {"system": "L5178/MDR1 mouse T-cell lymphoma cells", "assay": "cells", "details": "Mus musculus, T-cell, 72 h, read-out: Inhibition (%) of viability", "from_the_text": "as §1\nL5178/MDR1 cells were seeded at 10,000 cells per well in 96-well plates and then incubated for 72 hours in the absence or presence of 5 μg/ml of CCcompound104 and various concentrations of CCcompound26 as indicated in Table 6.\nEpirubicin, like doxorubicin and other antracyclins, is an MDR1 substrate. The goal of this experiment was to use epirubicin as a model compound to determine if in L5178/MDR1 cells CCcompound104 also can enhance the effects of MDR1 substrate anti-cancer agents other than CCcompound26 and other thioxanthene or thioxanthone CC compounds. The parent and MDR1 expressing cells were seeded at 30,000 cells per well in 96-well microplates and after a 24-h resting period treated with increasing concentrations of epirubicin n in the absence or presence of 5 μg/ml of CCcompound104 for 72 hours."}, "MCF-7/ADR cells": {"system": "MCF-7/ADR cells", "assay": "MTT cell viability, MCF-7/ADR cells", "assay_type": "cell-based, human", "details": "72 h; CCcompound104 5 μg/ml, EA 60 μM, CCcompound26/CCcompound3/CCcompound19 50 μM, alone or combined", "experimental": "MCF/ADR cells were selected by incubating the parent MCF-7 with toxic concentrations (up to 10 μM) of adriamycin (doxorubicin). The selected drug resistant cells express both MDR1 and MRP1 among other molecular alterations as reviewed earlier [Kiss, Z., Tomono, M. and Anderson, W. B. (1994), “Phorbol ester selectively stimulates the phospholipase D-mediated hydrolysis of phosphatidylethanolamine in multidrug-resistant MCF-7 human breast carcinoma cells,” Biochem. J., 302, 649-654]. […] Ethacrynic acid (EA) alone, used at 60 μM concentration, decreased cell viability by about 24%, while CCcompound104 and EA in combination had 70% inhibitory effects (Table 7). In this cell line CCcompound104 and EA decreased cell viability synergistically."}, "[2]": {"system": "CaOV-3 human ovarian cancer cell line", "assay": "Cell viability, CaOV-3 cells", "details": "Caov-3, read-out: decrease in viability / inhibition", "from_the_text": "For the determination of relative number of viable cells before and after treatments, in most cases the MTT assay was used. This calorimetric assay is based on the ability of living cells, but not dead cells, to reduce 3-(4, 5-dimethyl thiazol-2-yl)-2, 5-diphenyltetrazolium bromide [Carmichael, J, De Graff, W. G., Gazdar, A. F., Minna, J. D. and Mitchell, J. B. (1987), “Evaluation oftetrazolium-based semiautomated calorimetric assay: Assessment of chemosensitivity testing,” Cancer Res., 47, 936-942]. For this assay, cells were plated in 96-well plates (10,000-30,000 cells in case of cultured cells, 100,000 cells in case of healthy lymphocytes, and 200,000 cells in case of chronic lymphocytic leukemia or non-Hodgkin lymphocytes) in the respective incubation media. After a 24-h resting period, the cells were treated with the test agents and then incubated (in CO2 incubator under humidified atmosphere) for 72 hours (final incubation volume, 150 μl). The MTT assay was performed both with the untreated and treated cell cultures at the conclusion of the incubation. Often, the MTT assay also was performed at the start of treatments to allow assessment of proliferation rates in the control and treated cell cultures. All data presented are the average of 4 incubations (in 4 separate wells) with the same cell population. […]"}, "CLL cells": {"system": "CLL cells", "assay": "cells", "details": "Homo sapiens, CLL cell, 72 h, 72 h, CCcompound104 5 μg/ml, CCcompound26 1 μM, alone or combined", "experimental": "Heparinized peripheral-blood samples were obtained from chronic lymphocytic leukemia patients with more than 70% malignant cells after informed consent, in accordance with the Declaration of Helsinki. The blood samples (10-ml) were diluted 1:1 with cold phosphate buffered saline (PBS; 0.135 M NaCl, 2.7 mM KCl, 1.5 mM KH2PO4, 8 mM Na2HPO4 [pH 7.4]) and layered onto Ficoll-Hypaque (8-ml, specific gravity, 1.086; Life Technologies, Grand Island, N.Y.). Then, the blood was centrifuged at 433 g for 20 min, and mononuclear cells were removed from the interphase. Cells were washed twice with cold PBS and after each centrifugation step the pelleted cells were resuspended in 10-ml RPMI 1640 supplemented with 10% fetal bovine serum (inactivated for 30 min at 56° C.). A Coulter channelyzer (Coulter Electronics, Hialeah, Fla.) was used to determine the cell number. Then the number of cells was adjusted to 1×10^7 cells per 1 ml before using them for the experiments.\nas §1"}},
  "note": "Read-outs that look alike come from different tables or passages of the source.",
  "data": [
    {"smiles": "C=CC[N+](CC)(CC)CC/C=C1/c2ccccc2Sc2ccc(C)cc21.[Br-]", "note": "[CCcompound26, N,N-Diethyl-N-allyl-3-(2-methyl-9H-thioxanthen-9-ylidene)-propan-1-aminiumbromide]", "values": [
      {"measurement": "solubility in water", "setting": "Solubility in water", "value": "water-soluble"},
      {"measurement": "cytotoxicity at 72 h, 50 μM", "setting": "in vitro", "value": 100, "unit": "%"},
      {"measurement": "cytotoxicity at 72 h, 1 μM", "setting": "in vitro; over 4 lymphocyte preparations", "value": "3 to 13", "unit": "%"},
      {"measurement": "cytotoxicity at 1.56 µM", "setting": "[1]", "value": 0, "unit": "%"},
      {"measurement": "cytotoxicity at 3.12 µM", "setting": "[1]", "value": 0, "unit": "%"},
      {"measurement": "cytotoxicity at 6.25 µM", "setting": "[1]", "value": 10, "unit": "%"},
      {"measurement": "cytotoxicity at 12.5 µM", "setting": "[1]", "value": 15, "unit": "%"},
      {"measurement": "cytotoxicity at 25 µM", "setting": "[1]", "value": 13, "unit": "%"},
      {"measurement": "cytotoxicity at 100 µM", "setting": "[1]", "value": 56, "unit": "%"},
      {"measurement": "Inhibition (%) of viability", "setting": "MCF-7/ADR cells", "value": 24.3, "unit": "%"},
      {"measurement": "cytotoxicity at 12.5 µM", "setting": "[2]", "value": "< 15", "unit": "%"},
      {"measurement": "cytotoxicity at 25 µM", "setting": "[2]", "value": "< 45", "unit": "%"},
      {"measurement": "cytotoxicity at 1 µM", "setting": "CLL cells; read-out: Inhibition (%) of viability, CLL patient 1", "value": 3.5, "unit": "%"},
      {"measurement": "cytotoxicity at 1 µM", "setting": "CLL cells; read-out: Inhibition (%) of viability, CLL patient 2", "value": 15.8, "unit": "%"},
      {"measurement": "cytotoxicity at 1 µM", "setting": "CLL cells; read-out: Inhibition (%) of viability, CLL patient 3", "value": 66.6, "unit": "%"},
      {"measurement": "cytotoxicity at 1 µM", "setting": "CLL cells; read-out: Inhibition (%) of viability, CLL patient 4", "value": 46.2, "unit": "%"},
      {"measurement": "cytotoxicity at 1 µM", "setting": "CLL cells; read-out: Inhibition (%) of viability, CLL patient 5", "value": 10.8, "unit": "%"},
      {"measurement": "cytotoxicity at 1 µM", "setting": "CLL cells; read-out: Inhibition (%) of viability, CLL patient 6", "value": 20.9, "unit": "%"},
      {"measurement": "cytotoxicity at 1 µM", "setting": "CLL cells; read-out: Inhibition (%) of viability, CLL patient 7", "value": 1.8, "unit": "%"},
      {"measurement": "cytotoxicity at 1 µM", "setting": "CLL cells; read-out: Inhibition (%) of viability, CLL patient 8", "value": 9, "unit": "%"},
      {"measurement": "cytotoxicity at 1 µM", "setting": "CLL cells; read-out: Inhibition (%) of viability, CLL patient 9", "value": 9.2, "unit": "%"},
      {"measurement": "cytotoxicity at 1 µM", "setting": "CLL cells; read-out: Inhibition (%) of viability, CLL patient 10", "value": 40.7, "unit": "%"},
      {"measurement": "cytotoxicity at 1 µM", "setting": "CLL cells; read-out: Inhibition (%) of viability, CLL patient 11", "value": 48.1, "unit": "%"},
      {"measurement": "cytotoxicity at 1 µM", "setting": "CLL cells; read-out: Inhibition (%) of viability, CLL patient 12", "value": 30.4, "unit": "%"},
      {"measurement": "cytotoxicity at 1 µM", "setting": "CLL cells; read-out: Inhibition (%) of viability, CLL patient 13", "value": 42.8, "unit": "%"},
      {"measurement": "cytotoxicity at 1 µM", "setting": "CLL cells; read-out: Inhibition (%) of viability, CLL patient 14", "value": 72.7, "unit": "%"},
      {"measurement": "cytotoxicity at 1 µM", "setting": "CLL cells; read-out: Inhibition (%) of viability, CLL patient 15", "value": 1.6, "unit": "%"},
      {"measurement": "cytotoxicity at 1 µM", "setting": "CLL cells; read-out: Inhibition (%) of viability, CLL patient 16", "value": 50, "unit": "%"},
      {"measurement": "cytotoxicity at 1 µM", "setting": "CLL cells; read-out: Inhibition (%) of viability, CLL patient 19", "value": 22.5, "unit": "%"},
      {"measurement": "cytotoxicity at 1 µM", "setting": "CLL cells; read-out: Inhibition (%) of viability, CLL patient 20", "value": 0, "unit": "%"}
    ]}
  ]
}
